Experimental data reported in patent publication US20100298141A1, “SUBSTITUTED PYRIDINE N-OXIDE HERBICIDES” (E. I. DU PONT DE NEMOURS AND COMPANY, priority 2007, published 2010).

How the values were obtained:
[1] = system: downy brome; test: Test C pre-/postemergence test; type: in vivo, Bromus tectorum; conditions: for Plant response rating (0 to 100), Bromegrass, Downy: 250 g ai/ha
Procedure, shortened: (§1)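 Seeds were planted and treated preemergence with test chemical in a non-phytotoxic solvent mixture containing surfactant. Postemergence applications of the same formulation went onto plants 2 to 18 cm tall (1- to 4-leaf stage). A dash marks no test result.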

[2] = system: johnsongrass; test: Test C pre-/postemergence test; type: in vivo, Sorghum halepense; conditions: for Plant response rating (0 to 100), Johnsongrass: 250 g ai/ha
Procedure, shortened: as §1

[3] = system: wheat; test: Test A pre-/postemergence greenhouse test; type: in vivo, Triticum aestivum; conditions: for Wheat plant response rating: 0 to 100 scale; for Plant response rating, Wheat: 0 to 100 scale where 0 is no effect and 100 is complete control
Procedure, shortened: (§2)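 Pre: directed soil spray on seeded loam/sand. Post: foliar spray, plants 2–10 cm, 1–2 leaf stage, applied concurrently. Vehicle: non-phytotoxic solvent + surfactant. Greenhouse ~10 d; visual injury rating vs untreated controls.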

[4] = system: corn; test: Test C pre-/postemergence test; type: in vivo, Zea mays; conditions: for Plant response rating (0 to 100), Corn: 250 g ai/ha
Procedure, shortened: as §1

[5] = system: redroot pigweed; test: Test A pre-/postemergence greenhouse test; type: in vivo, Amaranthus retroflexus; conditions: for Pigweed plant response rating: 0 to 100 scale; for Plant response rating, Pigweed: 0 to 100 scale where 0 is no effect and 100 is complete control
Procedure, shortened: as §2

[6] = system: catchweed bedstraw; test: Test C pre-/postemergence test; type: in vivo, Galium aparine; conditions: for Plant response rating (0 to 100), Galium: 250 g ai/ha
Excerpt: Seeds of plant species selected from blackgrass (Alopecurus myosuroides), downy brome (Bromus tectorum), green foxtail (Setaria viridis), Italian ryegrass (Lolium multiflorum), wheat (Triticum aestivum), wild oat (Avena fatua), catchweed bedstraw (Galium aparine), Russian thistle (Salsola kali), […] (Cynodon dactylon), Surinam grass (Brachiaria decumbens), cocklebur (Xanthium strumarium), corn (Zea mays), crabgrass (Digitaria sanguinalis), woolly cupgrass (Eriochloa villosa), giant foxtail (Setaria faberii), Goosegrass (Eleusin indica), johnsongrass (Sorghum halepense), kochia (Kochia scoparia), lambsquarters (Chenopodium album), morningglory (Ipomoea coccinea), eastern black nightshade (Solanum ptycanthum), yellow nutsedge (Cyperus esculentus), pigweed (Amaranthus retroflexus), common ragweed (Ambrosia elation), soybean (Glycine max), common (oilseed) sunflower (Helianthus annuus), and velvetleaf (Abutilon theophrasti) were planted and treated preemergence with test chemicals formulated in a non-phytotoxic solvent mixture which included a surfactant. At the same time, plants selected from these crop and weed species and also winter barley (Hordeum vulgare), canarygrass (Phalaris minor), and chickweed (Stellaria media) were treated with postemergence applications of some of the test chemicals formulated in the same manner. Plants ranged in height from 2 to 18 cm (1- to 4-leaf stage) for postemergence treatments. […] At time of treatment, test pots were flooded to 3 cm above the soil surface, treated by application of test compounds directly to the paddy water, and then maintained at that water depth for the duration of the test. […] A dash (-) response means no test result.

[7] = system: yellow nutsedge; test: Test C pre-/postemergence test; type: in vivo, Cyperus esculentus
Procedure, shortened: as §1

[8] = system: giant foxtail; test: Test C pre-/postemergence test; type: in vivo, Setaria faberii; conditions: for Plant response rating (0 to 100), Foxtail, Giant: 250 g ai/ha
Procedure, shortened: as §1

[9] = system: velvetleaf; test: Test A pre-/postemergence greenhouse test; type: in vivo, Abutilon theophrasti; conditions: for Velvetleaf plant response rating: 0 to 100 scale; for Plant response rating, Velvetleaf: 0 to 100 scale where 0 is no effect and 100 is complete control
Procedure, shortened: as §2

[10] = system: woolly cupgrass; test: Test C pre-/postemergence test; type: in vivo, Eriochloa villosa; conditions: for Plant response rating (0 to 100), Cupgrass, Woolly: 250 g ai/ha
Procedure, shortened: as §1

[11] = system: eastern black nightshade; test: Test C pre-/postemergence test; type: in vivo, Solanum ptycanthum
Procedure, shortened: as §1

[12] = system: duck salad; test: Test C flooded paddy test; type: in vivo, Heteranthera limosa; conditions: Flood
Procedure, shortened: (§3)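 Under a constant 3 cm flood, test compounds went directly into the paddy water. Following 13 to 15 days of greenhouse growth, treated species and controls were compared by eye.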

[13] = system: wild oat; test: Test C pre-/postemergence test; type: in vivo, Avena fatua
Procedure, shortened: as §1

[14] = system: velvetleaf; test: Test C pre-/postemergence test; type: in vivo, Abutilon theophrasti; conditions: Preemergence
Procedure, shortened: as §1

[15] = system: wheat; test: Test C pre-/postemergence test; type: in vivo, Triticum aestivum
Procedure, shortened: as §1

[16] = system: rice; test: Test C flooded paddy test; type: in vivo, Oryza sativa; conditions: Flood
Procedure, shortened: as §3

[17] = system: morningglory; test: Test C pre-/postemergence test; type: in vivo, Ipomoea coccinea
Procedure, shortened: as §1

[18] = 62 g ai/ha, Preemergence, scale 0 to 100
[19] = Preemergence, 31 g ai/ha, scale 0 to 100 (0 no effect, 100 complete control)
[20] = preemergence, 125 g ai/ha, scale 0 (no effect) to 100 (complete control)
[21] = Postemergence, 125 g ai/ha, 0 is no effect, 100 is complete control
[22] = Postemergence, 500 g ai/ha, 0 is no effect, 100 is complete control
[23] = Preemergence, 125 g ai/ha, 0 no effect, 100 complete control
[24] = 31 g ai/ha, scale 0 to 100 (0 no effect, 100 complete control)
[25] = 62 g ai/ha, scale 0 to 100, 0 no effect, 100 complete control, 13 to 15 days
[26] = 125 g ai/ha, scale 0 to 100, 0 no effect, 100 complete control, 13 to 15 days
[27] = 250 g ai/ha, scale 0 to 100, 0 no effect, 100 complete control, 13 to 15 days
[28] = 31 g ai/ha, Preemergence, scale 0 to 100
[29] = 62 g ai/ha, preemergence, scale 0 (no effect) to 100 (complete control)

Cn1nc(C(F)(F)F)c(C[S+]([O-])c2cc(C(F)(F)F)cc[n+]2[O-])c1Cl (racemic) [Compound 34]
Bromegrass, Downy plant response rating [1, 18]: 0 | Plant response rating, Bromegrass, Downy [1, 19]: 0 | Plant response rating (0 to 100), Bromegrass, Downy ([1]; Preemergence): 20 | Bromegrass, Downy plant response rating [1, 20]: 20 | Johnsongrass plant response rating [2, 18]: 85 | Plant response rating, Johnsongrass [2, 19]: 85 | Plant response rating (0 to 100), Johnsongrass ([2]; Preemergence): 100 | Wheat plant response rating [3, 21]: 0 | Wheat plant response rating [3, 22]: 0 | Wheat plant response rating [3, 23]: 30 | Plant response rating, Wheat ([3]; Preemergence, 500 g ai/ha): 50 | Corn plant response rating [4, 18]: 0 | Plant response rating, Corn [4, 19]: 0 | Plant response rating (0 to 100), Corn ([4]; Preemergence): 20 | Corn plant response rating [4, 20]: 5 | Pigweed plant response rating [5, 21]: 60 | Pigweed plant response rating [5, 22]: 70 | Pigweed plant response rating [5, 23]: 100 | Plant response rating, Pigweed ([5]; Preemergence, 500 g ai/ha): 100 | Plant response rating, Galium [6, 19]: 0 | Plant response rating (0 to 100), Galium ([6]; Preemergence): 100 | Nutsedge, Yellow plant response rating [7, 18]: 70 | Plant response rating, Nutsedge, Yellow [7, 19]: 70 | Foxtail, Giant plant response rating [8, 18]: 20 | Plant response rating, Foxtail, Giant [8, 19]: 20 | Plant response rating (0 to 100), Foxtail, Giant ([8]; Preemergence): 50 | Velvetleaf plant response rating [9, 21]: 30 | Velvetleaf plant response rating [9, 22]: 60 | Velvetleaf plant response rating [9, 23]: 30 | Plant response rating, Velvetleaf ([9]; Preemergence, 500 g ai/ha): 60 | Cupgrass, Woolly plant response rating [10, 18]: 35 | Plant response rating, Cupgrass, Woolly [10, 19]: 35 | Plant response rating (0 to 100), Cupgrass, Woolly ([10]; Preemergence): 75 | Nightshade plant response rating [11, 18]: 100 | Plant response rating, Nightshade [11, 19]: 85 | Plant response rating, Ducksalad [12, 24]: 0 | Plant response rating, Ducksalad [12, 25]: 75 | Plant response rating, Ducksalad [12, 26]: 80 | Plant response rating, Ducksalad [12, 27]: 85 | Oat, Wild plant response rating [13, 18]: 40 | Plant response rating, Oat, Wild [13, 19]: 0 | Velvetleaf plant response rating ([14]; 62 g ai/ha, scale 0 to 100): 70 | Plant response rating, Velvetleaf [14, 24]: 40 | Wheat plant response rating [15, 18]: 10 | Plant response rating, Wheat [15, 19]: 0 | Plant response rating, Rice [16, 24]: 0 | Plant response rating, Rice [16, 25]: 0 | Plant response rating, Rice [16, 26]: 0 | Plant response rating, Rice [16, 27]: 40

Cn1nc(C(F)(F)F)c(CS(=O)(=O)c2cccc[n+]2[O-])c1OC(F)F [Compound 4]
Bromegrass, Downy plant response rating [1, 28]: 0 | Bromegrass, Downy plant response rating [1, 29]: 0 | Plant response rating (0 to 100), Bromegrass, Downy ([1]; Preemergence): 70 | Bromegrass, Downy plant response rating [1, 20]: 0 | Johnsongrass plant response rating [2, 28]: 95 | Johnsongrass plant response rating [2, 29]: 95 | Plant response rating (0 to 100), Johnsongrass ([2]; Preemergence): 100 | Johnsongrass plant response rating [2, 20]: 100 | Wheat plant response rating [3, 21]: 60 | Wheat plant response rating [3, 22]: 60 | Wheat plant response rating [3, 23]: 50 | Plant response rating, Wheat ([3]; Preemergence, 500 g ai/ha): 80 | Corn plant response rating [4, 28]: 0 | Corn plant response rating [4, 29]: 50 | Plant response rating (0 to 100), Corn ([4]; Preemergence): 70 | Corn plant response rating [4, 20]: 55 | Pigweed plant response rating [5, 21]: 70 | Pigweed plant response rating [5, 22]: 80 | Pigweed plant response rating [5, 23]: 100 | Plant response rating, Pigweed ([5]; Preemergence, 500 g ai/ha): 100 | Galium plant response rating [6, 28]: 70 | Galium plant response rating [6, 29]: 90 | Plant response rating (0 to 100), Galium ([6]; Preemergence): 100 | Galium plant response rating [6, 20]: 100 | Nutsedge, Yellow plant response rating [7, 28]: 85 | Nutsedge, Yellow plant response rating [7, 29]: 100 | Plant response rating (0 to 100), Nutsedge, Yellow ([7]; Preemergence, 250 g ai/ha): 100 | Nutsedge, Yellow plant response rating [7, 20]: 100 | Foxtail, Giant plant response rating [8, 28]: 90 | Foxtail, Giant plant response rating [8, 29]: 100 | Plant response rating (0 to 100), Foxtail, Giant ([8]; Preemergence): 100 | Foxtail, Giant plant response rating [8, 20]: 100 | Velvetleaf plant response rating [9, 21]: 50 | Velvetleaf plant response rating [9, 22]: 80 | Velvetleaf plant response rating [9, 23]: 50 | Plant response rating, Velvetleaf ([9]; Preemergence, 500 g ai/ha): 90 | Cupgrass, Woolly plant response rating [10, 28]: 60 | Cupgrass, Woolly plant response rating [10, 29]: 98 | Plant response rating (0 to 100), Cupgrass, Woolly ([10]; Preemergence): 100 | Cupgrass, Woolly plant response rating [10, 20]: 98 | Nightshade plant response rating [11, 28]: 90 | Nightshade plant response rating [11, 29]: 100 | Plant response rating (0 to 100), Nightshade ([11]; Preemergence, 250 g ai/ha): 100 | Nightshade plant response rating [11, 20]: 100 | Morningglory plant response rating [17, 28]: 0 | Morningglory plant response rating [17, 29]: 0 | Plant response rating (0 to 100), Morningglory ([17]; Preemergence, 250 g ai/ha): 100 | Morningglory plant response rating [17, 20]: 85 | Oat, Wild plant response rating [13, 28]: 10 | Oat, Wild plant response rating [13, 29]: 50 | Plant response rating (0 to 100), Oat, Wild ([13]; Preemergence, 250 g ai/ha): 70 | Oat, Wild plant response rating [13, 20]: 65 | Wheat plant response rating [15, 29]: 20 | Plant response rating (0 to 100), Wheat ([15]; Preemergence, 250 g ai/ha): 50 | Wheat plant response rating [15, 20]: 20 | Plant response rating, Rice [16, 24]: 10 | Plant response rating, Rice [16, 25]: 30 | Plant response rating, Rice [16, 26]: 70 | Plant response rating, Rice ([16]; 250 g ai/ha, scale 0 to 100 (0 no effect, 100 complete control)): 80
